Results as given in patent publication EP1430019B1, “SPHINGOLIPIDS” (priority 2001, dated 2003).

Tests used:
sphingomyelinases = experiment: Sphingomyelinase inhibition, HL60 cell sonicate (Table 4, acid or neutral not stated); assay type: biochemical, Human
Protocol: N-hexyl-sphingosyl phosphorylcholine (AD-2144) was tested as to its inhibitory effect on sphingomyelinases, acidic (i.e., with an optimum at about pH 5) or neutral (with a pH optimum at about pH 7.4). For this purpose a sonicate of HL60 leukemic cells was used as enzyme source. Increasing concentrations of AD-2144 were dispersed by a mixture of fluorescent and non-fluorescent sphingomyelin (Bodipy-C12-SPM:SPM, 1:19), buffer and 0.25% Triton-X100 in a volume of 100 µl. For acid sphingomyelinase 0.4M acetate buffer pH 5.0 was used; for neutral sphingomyelinase 0.2M Tris buffer, pH 7.4 and 5 mM magnesium chloride. To 100 µl of these dispersions, 100 µl of HL60 cells sonicate were added. Incubation was 2-3 hours after which 0.8 ml of chloroform:methanol 2:1 were added, stirred and the lower, chloroform phase was collected, dried and applied to a thin layer chromatography plate. The plate was developed in a mixture of chloroform and methanol, 87:3. The fluorescence of the product, i.e., Bodipy-C12-ceramide, was quantified.
For acid sphingomyelinase as well as for neutral spingomyelinase: at 300 µM of AD-2144 there was a reduction of over 60% in Bodipy-C12-ceramide. […]

HL60 cells [1] = experiment: HL60 cell viability by total protein content (Bradford); assay type: cell-based, Human; conditions: for IC50: HL60, 2 days
Protocol: The effect of the AD-2646 compound on cell viability was further supported when the total protein content was quantified. HL60 cells were incubated as described above, with different concentrations of AD-2646. After 2 days the cells were collected, washed twice with saline, dispersed and following a short pulsing with a probe-sonicator their protein content was quantified by the Bradford procedure. Similarly to the viable cell counting results, the protein measurements indicated an IC50 value of 5 µM.
To analyze whether the AD-2646 compound may mediate its effect on cell viability and on total protein content, in cooperation with other compounds, the cooperative effect of this compound and Taxol was next evaluated. HL60 cells were incubated for two days with 4 µM AD2646 in the presence or absence of 2 ng Taxol. […]
(§1) The effect of different compounds of the invention on cell viability was next evaluated by measuring total cell protein quantity. Different cell lines were incubated for two days in the presence of increasing concentrations of the different compounds of the present invention.

[2] = test system: Leishmania major promastigote; experiment: Leishmania major promastigote cell count; assay type: cell-based; conditions: promastigotes, 3 h, 27°C, cell counting; read-out: IC50 for cell reduction
Protocol: 2 × 10^5 Leishmania major promastigote cell, each in a volume of 100 µl were added to 100 µl medium (RPMI 1640 culture medium complemented with 20% FCS, 1% penicillin and 1% streptomycin) in 96-well plates containing zero and increasing concentrations of (2S,3R)-2-N-aminohexyl-1-(4-N-hexylamiuophenyl)-1,3-propanediol (AD-2663) in 2-fold serial dilution. After incubation period (3 h, 27°C) the number of cells was determined by counting on aliquot from each well on a Neulander cell counter under a microscope. The IC50 for cell reduction was 7 µM.

Bod3-SPM [3] = experiment: Sphingolipid metabolism from Bodipy-C3-ceramide in HL60 cells: Bod3-SPM; assay type: cell-based, Human; conditions: for inhibition of Bod3-SPM (fluorescent image): HL60, 10 µM; for IC50: Homo sapiens, HL-60, 3 h, HL60, 3 hours, 2.5 µM Bodipy-C3-ceramide, cell + medium, read-out: Bod 3-SPM (IC50 for reduction)
Protocol: (§2) In order to examine the effect of the different compounds on sphingolipids metabolism, different cell lines were incubated with increasing concentrations of different compounds of the invention in the presence of 2.5 µM Bodipy-C3-ceramide that was added to the culture medium as a solution in dimethylsulfoxide (not exceeding 0.1% DMSO of the final volium). After 3 hours, cells and medium were collected and centrifuged. Cells were next extracted with chloroform- methanol containing 2% acetic acid 1:1 (by volume) and the medium was shaken with an equal volume of chloroform-methanol, 1:1 (by volume). The phases were separated by centrifugation and the lower chloroform phase was collected. The solvents were evaporated and applied to thin layer chromatography silica gel plates (Whatman 4865-821) with a concentrating zone.
(§3) Plates were developed as follows: For medium: in chloroform-methanol-H2O, 75:25:4 by volume. For cells: plates were first developed with chloroform-methanol, 9:1, then dried and re-run in chloroform-methanol: H2O, 65:35:4.
(§4) Standards of Bodipy-C3-ceramide: Bodipy-C3-glucosylceramide (Bod3-GC) and Bodipy C3 sphingomyelin (Bod3-SPM) were used as markers. The fluorescence of the respective Bod3-SPM and Bod3-GC spots was quantified using a Fuji FLA-2000 scanner.

Bod3-GC = biological target: T1, Bod3-GC (Homo sapiens, UniProt Q16739); experiment: Sphingolipid metabolism from Bodipy-C3-ceramide in HL60 cells: Bod3-GC; assay type: cell-based; conditions: HL60, 10 µM, Fig. 6
T1 sequence (Q16739 1-394): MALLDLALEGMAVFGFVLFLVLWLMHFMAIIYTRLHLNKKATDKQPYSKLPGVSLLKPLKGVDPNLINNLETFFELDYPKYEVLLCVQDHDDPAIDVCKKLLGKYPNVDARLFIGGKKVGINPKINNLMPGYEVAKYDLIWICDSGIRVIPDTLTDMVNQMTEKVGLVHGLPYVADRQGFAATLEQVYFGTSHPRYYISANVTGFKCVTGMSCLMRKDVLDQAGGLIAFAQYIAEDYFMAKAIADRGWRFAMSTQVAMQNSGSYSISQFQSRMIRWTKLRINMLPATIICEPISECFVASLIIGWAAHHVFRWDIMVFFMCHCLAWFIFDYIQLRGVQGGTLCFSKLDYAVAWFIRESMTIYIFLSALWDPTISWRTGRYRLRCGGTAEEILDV
Protocol: as §2, §3, §4

U937 cells = experiment: Apoptosis in U937 cells, DEVDase/caspase 3 activity kit; assay type: cell-based; conditions: Homo sapiens, U-937; U937, 5 µM, 24 hours; read-out: number of apoptotic cells relative to control cells
Protocol: Myeloid, leukemic U937 cells were incubated for 24 hours in the absence or in the presence of 5 µM AD-2672 and AD-2665. Cells were then collected and the percent of apoptotic cells was determined using a kit quantifying the DEVDase, caspase 3 activity. The number of apoptotic cells incubated with AD-2672 exceeded 6-fold those in the control cells. Cells incubated with AD-2665 exceeded 2.8-fold those in the control cells.

MCF7-NCi = experiment: Cell viability by total cell protein quantity, MCF7-NCi; assay type: cell-based; conditions: Homo sapiens, 48 h, two days
Protocol: as §1

MCF7-AdrR = experiment: Cell viability by total cell protein quantity, MCF7-AdrR; assay type: cell-based; conditions: Homo sapiens, 48 h, two days
Protocol: as §1

Bod 3-GC = experiment: Sphingolipid metabolism from Bodipy-C3-ceramide in MCF-NCi cells: Bod3-GC; assay type: cell-based; conditions: Homo sapiens, 3 hours, 2.5 µM Bodipy-C3-ceramide, read-out: Bod 3-GC (IC50 for reduction)
Protocol: as §2, §3, §4

Bod 3-SPM = experiment: Sphingolipid metabolism from Bodipy-C3-ceramide in MCF-NCi cells: Bod3-SPM; assay type: cell-based; conditions: Homo sapiens, 3 hours, 2.5 µM Bodipy-C3-ceramide, read-out: Bod 3-SPM (IC50 for reduction)
Protocol: as §2, §3, §4

Swiss mice = experiment: In vivo toxicity, mice viability
Protocol: Six groups, each of 5 Swiss mice were injected, intra-peritoneally with solutions of AD-2646, at varying concentrations, each in a volume of 100 µl. Injections were performed on days 1, 2, 3, 4, and mice viability was tested (Table 5).

Bod3-SPM [4] = experiment: Sphingolipid metabolism from Bodipy-C3-ceramide in TSU-PR1 cells: Bod3-SPM; assay type: cell-based; conditions: Homo sapiens; TSU-PR1, 3 hours, Fig. 5; read-out: reduction of Bod3-SPM, IC50
Protocol: as §2, §3, §4
The effect of AD-2646 on sphingolipid metabolism was further examined using TSU-PR1 prostate cancer cells. […]

TSU-PR1 cells = experiment: TSU-PR1 cytotoxicity by protein content; assay type: cell-based; conditions: Homo sapiens, 48 h; TSU-PR1, two days, Fig. 2
Protocol: In order to evaluate the generality of AD-2646 compound effect on cell viability, other cell lines were subjected to the same procedures disclosed herein above.
TSU-PR1 cells (prostate cancer cells) were incubated for two days with increasing concentrations of AD-2646. The protein content measurements shown in Fig. 2 indicate that the cells were killed with an IC50 of 6-7 µM.

HL60 cells [5] = experiment: HL60 cell viability, viable cell count with trypan blue; assay type: cell-based, Human
Protocol: The effect of AD-2646 on cell viability was analyzed by measuring cell mortality (viable cell count) and/or total protein quantity. HL60 cells grown in RMPI plus 10% fetal calf serum, were incubated with increasing concentrations of (2R,3R)-2-(N-tetradecylamine)-1-(4-nitrophenyl)-1,3-propanediol (AD-2646) in 6- or 24-well dishes. […] After 2 days the cells were collected, washed twice with saline, treated with trypan blue and the number of living (non-blue) cells was counted. Fig. 1 indicates an IC50 value of 5 µM.
Kinetic of the observed killing effect of the AD-2646 compound was next examined. HL60 cells were incubated with 40 µM of AD-2646 for 1, 3, 5 and 7 hours. Already after 1 hour a reduction of 60% of the viable cell number was observed.

CCCCCCCCCCCCC/C=C/[C@H](O)[C@@H](COP(=O)([O-])OCC[N+](C)(C)C)NCCCCCC [AD-2144, N-hexyl-sphingosyl phosphorylcholine]
% reduction in Bodipy-C12-ceramide (sphingomyelinases; AD-2144 concentration 50µl): 30% | % reduction in Bodipy-C12-ceramide (sphingomyelinases; AD-2144 concentration 100µl): 44% | % reduction in Bodipy-C12-ceramide (sphingomyelinases; AD-2144 concentration 150µl): 65% | % reduction in Bodipy-C12-ceramide (sphingomyelinases; AD-2144 concentration 300µl): 82%

(2R, 3S)-2-BOC-amino-1-[4-N-(dodecanoyl-12-N-BOC-amine)-phenyl)-1,3-propanediol [AD-2620]
IC50 (HL60 cells [1]): 3 µM

CCCCCCNc1ccc([C@@H](O)[C@H](CO)NCCCCCC)cc1 [AD-2663, (2S,3R)-2-N-aminohexyl-1-(4-N-hexylamiuophenyl)-1,3-propanediol]
IC50 [2]: 7 µM

CCCCCCCCCCCC(=O)Nc1ccc([C@H](O)[C@@H](N)CO)cc1 [AD-2674]
inhibition of Bod3-SPM (fluorescent image) (Bod3-SPM [3]; Fig. 6): low inhibition of Bod3-SPM | reduction of the level of Bod3-GC (fluorescent image) (Bod3-GC): much stronger reduction of the level of Bod3-GC

CCCCCCNc1ccc([C@@H](O)[C@@H](CO)NCCCCCC)cc1 [AD-2665, (2R,3R)-2-(N-hexylamine)-1-(4-N-hexylaminophenyl)-1,3-propanediol]
IC50 (Bod3-SPM [3]): 4 µM | fold induction at 5 µM (U937 cells): 2.8 | IC50 (MCF7-NCi): 3 µM | IC50 (MCF7-AdrR): 7 µM | IC50 (Bod 3-GC): 10 µM | IC50 (Bod 3-SPM): 7 µM

CCCCCCCCCCCCCCN[C@H](CO)[C@H](O)c1ccc([N+](=O)[O-])cc1 [AD-2646, (2R, 3R)-2-(N-tetradecylamine)-1-(4-nitrophenyl)-1,3-propanediol]
No. of mice in each day (Swiss mice; 1mg/kg intra-peritoneally on days 1-4, group of 5, day 1): 5 | No. of mice in each day (Swiss mice; 1mg/kg intra-peritoneally on days 1-4, group of 5, day 2): 5 | No. of mice in each day (Swiss mice; 1mg/kg intra-peritoneally on days 1-4, group of 5, day 3): 5 | No. of mice in each day (Swiss mice; 1mg/kg intra-peritoneally on days 1-4, group of 5, day 4): 5 | No. of mice in each day (Swiss mice; 1mg/kg intra-peritoneally on days 1-4, group of 5, day 5): 5 | No. of mice in each day (Swiss mice; 1mg/kg intra-peritoneally on days 1-4, group of 5, day 6): 5 | No. of mice in each day (Swiss mice; 5mg/kg intra-peritoneally on days 1-4, group of 5, day 1): 5 | No. of mice in each day (Swiss mice; 5mg/kg intra-peritoneally on days 1-4, group of 5, day 2): 5 | No. of mice in each day (Swiss mice; 5mg/kg intra-peritoneally on days 1-4, group of 5, day 3): 5 | No. of mice in each day (Swiss mice; 5mg/kg intra-peritoneally on days 1-4, group of 5, day 4): 5 | No. of mice in each day (Swiss mice; 5mg/kg intra-peritoneally on days 1-4, group of 5, day 5): 5 | No. of mice in each day (Swiss mice; 5mg/kg intra-peritoneally on days 1-4, group of 5, day 6): 5 | IC50 (Bod3-SPM [4]): ~5 µM | IC50 (Bod3-SPM [3]): ~6 µM | Protein content (HL60 cells [1]; HL60, two days, 4 µM AD2646 alone): 174 µg | IC50 (HL60 cells [1]; Homo sapiens, HL-60, 48 h): 5 µM | IC50 (TSU-PR1 cells): 6 to 7 µM | reduction of the viable cell number (HL60 cells [5]; HL60, 40 µM, after 1 hour): 60% | IC50 (HL60 cells [5]; Homo sapiens, HL-60, 48 h, HL60, 2 days, trypan blue, Fig. 1): 5 µM

CCCCCCCCCCCCCCN[C@H](CO)[C@H](O)c1ccc(N)cc1 [AD-2672, (2R,3R)-2-(N-tetradecylamine)-1-(4-aminophenyl)-1,3-propanediol]
level of Bod3-SPM (fluorescent image) (Bod3-SPM [3]; HL60, 5 and 10 µM, Fig. 6): strongly reduces the level of Bod3-SPM | IC50 (Bod3-SPM [3]): 4 µM | fold induction at 5 µM (U937 cells): 6

CCCCCCCCCCCC(=O)Nc1ccc([C@@H](O)[C@H](N)CO)cc1 [AD-2673]
inhibition of Bod3-SPM (fluorescent image) (Bod3-SPM [3]; Fig. 6): low inhibition of Bod3-SPM | IC50 (Bod3-SPM [3]): 6 µM | IC50 (HL60 cells [1]; Homo sapiens, HL-60, 48 h): 7.5 µM | reduction of the level of Bod3-GC (fluorescent image) (Bod3-GC): much stronger reduction of the level of Bod3-GC
